According to patent publication US9139523B2, “5-HT2B receptor antagonists” (Janssen Pharmaceutica, NV, priority 2010, dated 2015):

Columns and labels:
5HT2C = target: T1, 5HT2C (Homo sapiens, UniProt P28335); experiment: Competitive radioligand binding, 5HT2C; details: CHO membranes, 3H-mesulergin 1 nM; read-out: pIC50 5HT2C (converted)
T1 construct: expressed in transfected cells; host or cells: CHO (membrane fraction)
T1 sequence (P28335 33-458): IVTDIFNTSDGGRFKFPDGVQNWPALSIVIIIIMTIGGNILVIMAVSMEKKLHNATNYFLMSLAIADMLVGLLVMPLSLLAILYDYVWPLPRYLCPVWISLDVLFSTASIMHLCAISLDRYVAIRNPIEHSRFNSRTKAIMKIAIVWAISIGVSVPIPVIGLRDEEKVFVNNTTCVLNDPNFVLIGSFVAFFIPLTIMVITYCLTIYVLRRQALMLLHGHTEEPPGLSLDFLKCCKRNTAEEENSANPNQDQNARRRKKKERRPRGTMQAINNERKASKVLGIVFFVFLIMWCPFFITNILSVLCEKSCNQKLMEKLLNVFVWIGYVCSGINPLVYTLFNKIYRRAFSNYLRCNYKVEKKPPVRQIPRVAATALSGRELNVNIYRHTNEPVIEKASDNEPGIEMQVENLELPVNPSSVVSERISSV
Protocol: (§1) Competitive radioligand binding assays were used to determine the affinity of the test compounds for a particular receptor. Various concentrations of the non-labelled test compound were added to the incubation mixture with the membrane fraction, containing the receptor of interest, and a fixed low concentration (nM) of the radioligand. During the incubation the radioligand bound to the receptor, but this was inhibited by the non-labelled test compound in proportion to its binding affinity and concentration.
(§2) Cell lines were established that stably express the human variant of the receptor under investigation after transfection with the appropriate cDNA (Table 1). Transfected cells were grown under standard culture conditions, and membrane fractions were obtained upon centrifugation and homogenisation of the cells. Optimal membrane dilutions for binding studies were determined and aliquots were stored at −70° C. until use. In a 96-well plate format, the appropriate radioligand was added to the membrane preparation containing the receptor under investigation. Compound solutions were prepared in DMSO, and diluted 100-fold into the multiwell plate to a final test concentration of 10^−9 to 10^−5 M. After incubation with the test compound, the unbound radioligand was removed by filtration on G/F filters with a Filtermate 96. Microscint™ was added to the washed filter plates and the radioactivity bound to the receptor was measured by liquid scintillation counting in a TopCount (Packard). To measure the Non-Specific Binding (NSB), a high concentration of the non-radiolabeled ligand was added to wells containing the membrane fraction and the radioligand.
(§3) From this, the pIC50 value (inhibitory concentration causing 50% displacement of specific binding) was determined, as well as an estimate of the slope of the plot (Hill coefficient).

Alpha2C = target: T2, Alpha2C (Homo sapiens, UniProt P18825); experiment: Competitive radioligand binding, Alpha2C; details: CHO membranes, 3H-rauwolscine 1 nM; for IC50: read-out: pIC50 Alpha2C (converted)
T2 construct: expressed in transfected cells; host or cells: CHO (membrane fraction)
T2 sequence (P18825 1-462): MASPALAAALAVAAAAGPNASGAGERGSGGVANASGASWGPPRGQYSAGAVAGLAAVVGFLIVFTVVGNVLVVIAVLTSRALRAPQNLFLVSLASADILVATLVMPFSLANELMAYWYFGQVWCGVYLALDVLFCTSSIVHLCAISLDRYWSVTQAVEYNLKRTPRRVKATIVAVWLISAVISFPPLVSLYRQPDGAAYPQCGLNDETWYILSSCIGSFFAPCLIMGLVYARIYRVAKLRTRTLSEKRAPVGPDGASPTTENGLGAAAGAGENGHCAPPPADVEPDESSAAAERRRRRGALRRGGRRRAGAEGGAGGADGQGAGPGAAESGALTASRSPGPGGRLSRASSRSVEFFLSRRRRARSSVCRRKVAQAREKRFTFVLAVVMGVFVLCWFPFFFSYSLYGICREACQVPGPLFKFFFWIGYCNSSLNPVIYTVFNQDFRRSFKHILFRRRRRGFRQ
Protocol: as §1, §2, §3

hERG = target: T3, hERG (Homo sapiens, UniProt Q12809); experiment: Competitive radioligand binding, hERG; details: HEK293 membranes, 3H-dofetilide 5 nM
T3 construct: expressed in transfected cells; host or cells: HEK293 (membrane fraction)
Protocol: as §1, §2, §3

5HT4B = target: T4, 5HT4B (Homo sapiens, UniProt Q13639); experiment: Competitive radioligand binding, 5HT4B; details: HEK293 membranes, 3H-GR113808 0.1 nM; for IC50: read-out: pIC50 5HT4B (converted)
T4 construct: expressed in transfected cells; host or cells: HEK293 (membrane fraction)
Protocol: as §1, §2, §3

Alpha2B = target: T5, Alpha2B (Homo sapiens, UniProt P18089); experiment: Competitive radioligand binding, Alpha2B; details: CHO membranes, 3H-rauwolscine 1 nM; for IC50: read-out: pIC50 Alpha2B (converted)
T5 construct: expressed in transfected cells; host or cells: CHO (membrane fraction)
T5 sequence (P18089 1-450): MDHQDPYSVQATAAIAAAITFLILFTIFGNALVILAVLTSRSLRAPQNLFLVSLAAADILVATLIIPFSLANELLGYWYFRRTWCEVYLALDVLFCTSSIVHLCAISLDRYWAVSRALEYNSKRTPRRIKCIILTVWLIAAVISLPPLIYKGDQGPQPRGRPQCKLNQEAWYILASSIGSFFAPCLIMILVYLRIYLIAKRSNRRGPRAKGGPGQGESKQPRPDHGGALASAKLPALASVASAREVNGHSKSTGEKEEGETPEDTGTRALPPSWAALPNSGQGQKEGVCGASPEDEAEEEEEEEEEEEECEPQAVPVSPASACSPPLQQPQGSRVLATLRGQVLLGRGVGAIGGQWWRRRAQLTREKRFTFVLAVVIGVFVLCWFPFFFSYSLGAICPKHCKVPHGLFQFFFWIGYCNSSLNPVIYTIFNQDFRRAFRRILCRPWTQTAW
Protocol: as §1, §2

5HT1A = target: T6, 5HT1A (Homo sapiens, UniProt P08908); experiment: Competitive radioligand binding, 5HT1A; details: HEK293 membranes, 3H-8-OH-DPAT 0.5 nM; read-out: pIC50 5HT1A (converted)
T6 construct: expressed in transfected cells; host or cells: HEK293 (membrane fraction)
T6 sequence (P08908 1-422): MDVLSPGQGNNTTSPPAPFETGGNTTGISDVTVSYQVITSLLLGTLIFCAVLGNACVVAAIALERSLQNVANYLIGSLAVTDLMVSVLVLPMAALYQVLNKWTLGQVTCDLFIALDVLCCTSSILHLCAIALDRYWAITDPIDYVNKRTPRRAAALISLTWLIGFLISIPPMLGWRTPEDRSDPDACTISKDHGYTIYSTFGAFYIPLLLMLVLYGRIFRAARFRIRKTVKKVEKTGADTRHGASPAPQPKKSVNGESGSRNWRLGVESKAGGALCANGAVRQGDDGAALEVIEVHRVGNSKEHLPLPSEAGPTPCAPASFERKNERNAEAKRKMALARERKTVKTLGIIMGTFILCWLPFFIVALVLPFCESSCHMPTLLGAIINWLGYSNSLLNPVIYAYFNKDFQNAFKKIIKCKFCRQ
Protocol: as §1, §2
Using in house developed software, a best-fit curve was fitted by a minimum sum of squares method to the plot of % inhibition vs. concentration of the test compound. From this, the pIC50 value (inhibitory concentration causing 50% displacement of specific binding) was determined, as well as an estimate of the slope of the plot (Hill coefficient).

T3 sequence (Q12809 whole entry): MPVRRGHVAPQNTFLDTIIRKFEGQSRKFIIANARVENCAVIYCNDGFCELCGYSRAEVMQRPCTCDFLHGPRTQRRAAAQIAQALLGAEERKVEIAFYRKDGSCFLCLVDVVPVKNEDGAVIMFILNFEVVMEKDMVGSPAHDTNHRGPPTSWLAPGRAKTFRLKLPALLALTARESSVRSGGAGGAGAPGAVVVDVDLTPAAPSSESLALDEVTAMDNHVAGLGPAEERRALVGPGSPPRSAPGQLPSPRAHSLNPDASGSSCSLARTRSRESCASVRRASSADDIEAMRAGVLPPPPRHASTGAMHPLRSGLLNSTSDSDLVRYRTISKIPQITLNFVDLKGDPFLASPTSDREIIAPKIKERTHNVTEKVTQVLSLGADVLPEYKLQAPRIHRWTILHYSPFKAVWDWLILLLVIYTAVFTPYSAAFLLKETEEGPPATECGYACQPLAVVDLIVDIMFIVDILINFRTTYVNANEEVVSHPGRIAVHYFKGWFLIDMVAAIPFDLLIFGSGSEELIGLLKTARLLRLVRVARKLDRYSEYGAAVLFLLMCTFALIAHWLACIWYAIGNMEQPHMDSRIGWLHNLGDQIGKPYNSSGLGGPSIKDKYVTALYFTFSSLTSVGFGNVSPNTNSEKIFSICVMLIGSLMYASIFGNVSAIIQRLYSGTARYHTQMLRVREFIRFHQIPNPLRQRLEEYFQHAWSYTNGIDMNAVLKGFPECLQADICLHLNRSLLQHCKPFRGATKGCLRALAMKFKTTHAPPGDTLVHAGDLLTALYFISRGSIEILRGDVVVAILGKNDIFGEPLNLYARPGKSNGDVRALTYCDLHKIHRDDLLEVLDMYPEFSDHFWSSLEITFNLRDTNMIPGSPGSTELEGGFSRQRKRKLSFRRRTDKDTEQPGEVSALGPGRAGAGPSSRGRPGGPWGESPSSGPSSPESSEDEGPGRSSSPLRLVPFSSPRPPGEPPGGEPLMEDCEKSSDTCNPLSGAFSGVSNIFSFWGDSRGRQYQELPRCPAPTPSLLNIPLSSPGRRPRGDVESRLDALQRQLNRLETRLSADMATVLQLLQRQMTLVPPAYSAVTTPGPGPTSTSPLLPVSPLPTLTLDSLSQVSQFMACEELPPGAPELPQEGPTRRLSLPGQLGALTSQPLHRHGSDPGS
T4 sequence (Q13639 whole entry): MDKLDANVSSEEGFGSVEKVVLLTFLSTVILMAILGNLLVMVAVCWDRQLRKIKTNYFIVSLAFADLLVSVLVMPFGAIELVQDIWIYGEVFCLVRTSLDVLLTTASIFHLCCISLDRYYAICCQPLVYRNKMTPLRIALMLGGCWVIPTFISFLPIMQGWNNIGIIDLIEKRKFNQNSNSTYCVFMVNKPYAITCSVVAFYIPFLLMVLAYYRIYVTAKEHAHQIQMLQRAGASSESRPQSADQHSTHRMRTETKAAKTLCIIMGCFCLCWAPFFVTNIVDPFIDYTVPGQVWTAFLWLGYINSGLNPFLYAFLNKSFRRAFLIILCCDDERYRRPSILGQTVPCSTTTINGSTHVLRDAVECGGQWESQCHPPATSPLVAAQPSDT

COc1cc(N)c(Cl)cc1C(=O)N[C@H]1CCN(CCCOc2ccc(F)cc2)C[C@H]1F (racemic) [(±)-12, cis-4-amino-5-chloro-N-{3-fluoro-1-[3-(4-fluorophenoxy)-propyl]-piperidin-4-yl}-2-methoxybenzamide]
IC50 (5HT2C): 4370 nM | IC50 (Alpha2C): 2090 nM | IC50 (hERG): 316 nM | IC50 (5HT4B): 115 nM | IC50 (Alpha2B): 2510 nM | IC50 (5HT1A): 4170 nM

COc1cc(N)c(Cl)cc1C(=O)N[C@@H]1CCN(CCCOc2ccc(F)cc2)C[C@H]1F (single isomer, unassigned) [(−)-7, trans-4-amino-5-chloro-N-{3-fluoro-1-[3-(4-fluorophenoxy)-propyl]-piperidin-4-yl}-2-methoxybenzamide]
IC50 (5HT2C): 3720 nM | IC50 (Alpha2C): 1170 nM | IC50 (hERG): 316 nM | IC50 (5HT4B): 437 nM | IC50 (Alpha2B): 6030 nM | IC50 (5HT1A): 1100 nM

COc1cc(N)c(Cl)cc1C(=O)N[C@H]1CCN(CCCOc2ccc(F)cc2)C[C@H]1F (single isomer, unassigned) [(−)-12, cis-4-amino-5-chloro-N-{3-fluoro-1-[3-(4-fluorophenoxy)-propyl]-piperidin-4-yl}-2-methoxybenzamide]
IC50 (5HT2C): 6610 nM | IC50 (Alpha2C): 5890 nM | IC50 (hERG): 191 nM | IC50 (5HT4B): 537 nM | IC50 (Alpha2B): 5250 nM | IC50 (5HT1A): 1860 nM

COc1cc(N)c(Cl)cc1C(=O)NC1CCN(CCCOc2ccc(F)cc2)CC1(F)F (racemic) [(±)-17, 4-amino-5-chloro-N-{3,3-difluoro-1-[3-(4-fluorophenoxy)-propyl]-piperidin-4-yl}-2-methoxybenzamide]
IC50 (5HT2C): 4680 nM | IC50 (Alpha2C): > 10000 nM | IC50 (hERG): 7590 nM | IC50 (5HT4B): > 10000 nM | IC50 (Alpha2B): > 10000 nM | IC50 (5HT1A): 7940 nM

COc1cc(N)c(Cl)cc1C(=O)N[C@@H]1CCN(CCCOc2ccc(F)cc2)C[C@H]1F (racemic) [(±)-7, trans-4-amino-5-chloro-N-{3-fluoro-1-[3-(4-fluorophenoxy)-propyl]-piperidin-4-yl}-2-methoxybenzamide]
IC50 (5HT2C): 1820 nM | IC50 (Alpha2C): 955 nM | IC50 (hERG): 234 nM | IC50 (5HT4B): 617 nM | IC50 (Alpha2B): 2510 nM | IC50 (5HT1A): 1820 nM

COc1cc(N)c(Cl)cc1C(=O)NC1CCN(CCCOc2ccc(F)cc2)CC1(F)F (single isomer, unassigned) [Compound (−)-17, 4-amino-5-chloro-N-{3,3-difluoro-1-[3-(4-fluorophenoxy)-propyl]-piperidin-4-yl}-2-methoxybenzamide]
IC50 (5HT2C): 6610 nM | pIC50 Alpha2C (Alpha2C): <5 | pIC50 hERG (hERG): <5 | pIC50 5HT4B (5HT4B): <5 | pIC50 Alpha2B (Alpha2B): <5 | IC50 (5HT1A): > 10000 nM

COc1cc(N)c(Cl)cc1C(=O)N[C@H]1CCN(CCCOc2ccc(F)cc2)C[C@H]1F (single isomer, unassigned) [(+)-12, cis-4-amino-5-chloro-N-{3-fluoro-1-[3-(4-fluorophenoxy)-propyl]-piperidin-4-yl}-2-methoxybenzamide]
IC50 (5HT2C): 5010 nM | IC50 (Alpha2C): 1950 nM | IC50 (hERG): 178 nM | IC50 (5HT4B): 126 nM | IC50 (Alpha2B): 3390 nM | IC50 (5HT1A): 741 nM

COc1cc(N)c(Cl)cc1C(=O)N[C@@H]1CCN(CCCOc2ccc(F)cc2)C[C@H]1F (single isomer, unassigned) [(+)-7, trans-4-amino-5-chloro-N-{3-fluoro-1-[3-(4-fluorophenoxy)-propyl]-piperidin-4-yl}-2-methoxybenzamide]
IC50 (5HT2C): 1230 nM | IC50 (Alpha2C): > 10000 nM | IC50 (hERG): 288 nM | IC50 (5HT4B): 871 nM | IC50 (Alpha2B): 2630 nM | IC50 (5HT1A): 676 nM

COc1cc(N)c(Cl)cc1C(=O)NC1CCN(CCCOc2ccc(F)cc2)CC1(F)F (single isomer, unassigned; (+)) [(+)-17, 4-amino-5-chloro-N-{3,3-difluoro-1-[3-(4-fluorophenoxy)-propyl]-piperidin-4-yl}-2-methoxybenzamide]
IC50 (5HT2C): > 10000 nM | IC50 (Alpha2C): > 10000 nM | IC50 (hERG): > 10000 nM | IC50 (5HT4B): > 10000 nM | IC50 (Alpha2B): > 10000 nM | IC50 (5HT1A): 5620 nM
